Reference: ChEMBL document CHEMBL4043124 (Bioorg Med Chem, 2017)

Experiment: Inhibition of Burkholderia pseudomallei beta-CA incubated for 15 mins by stopped-flow CO2 hydration assay

O=BOB(O)OB(O)OB=O [SODIUM TETRABORATE]
Ki: > 100 mM

[N-]=[N+]=[N-] [SODIUM AZIDE]
Ki: > 100 mM

O=S([O-])O.[Na+] [SODIUM BISULFITE]
Ki: > 100 mM

F[P-](F)(F)(F)(F)F.[Na+]
Ki: > 100 mM

[F-].[Na+] [SODIUM FLUORIDE]
Ki: > 100 mM

F[B-](F)(F)F.[Na+] [SODIUM TETRAFLUOROBORATE]
Ki: > 100 mM

[O-][Cl+3]([O-])([O-])O [SODIUM PERCHLORATE]
Ki: > 100 mM

OB(O)c1ccccc1 [PHENYLBORONIC ACID]
Ki: > 100 mM

O=S(=O)(O)OOS(=O)(=O)O [SODIUM PERSULFATE]
Ki: > 100 mM

N#CO [SODIUM CYANATE]
Ki: 6.8 mM
